Reference: patent US20200181104A1, “SSAO INHIBITORS AND USES THEREOF” (METACRINE, INC., priority 2018, published 2020)
Where a name gives a salt, the structure may show the parent alone.

Target: T1, Recombinant Human SSAO/VAP-1/AOC3 (Homo sapiens, UniProt Q16853)
T1 construct: purchased R&D systems 3957-AO
T1 sequence (Q16853 1-763): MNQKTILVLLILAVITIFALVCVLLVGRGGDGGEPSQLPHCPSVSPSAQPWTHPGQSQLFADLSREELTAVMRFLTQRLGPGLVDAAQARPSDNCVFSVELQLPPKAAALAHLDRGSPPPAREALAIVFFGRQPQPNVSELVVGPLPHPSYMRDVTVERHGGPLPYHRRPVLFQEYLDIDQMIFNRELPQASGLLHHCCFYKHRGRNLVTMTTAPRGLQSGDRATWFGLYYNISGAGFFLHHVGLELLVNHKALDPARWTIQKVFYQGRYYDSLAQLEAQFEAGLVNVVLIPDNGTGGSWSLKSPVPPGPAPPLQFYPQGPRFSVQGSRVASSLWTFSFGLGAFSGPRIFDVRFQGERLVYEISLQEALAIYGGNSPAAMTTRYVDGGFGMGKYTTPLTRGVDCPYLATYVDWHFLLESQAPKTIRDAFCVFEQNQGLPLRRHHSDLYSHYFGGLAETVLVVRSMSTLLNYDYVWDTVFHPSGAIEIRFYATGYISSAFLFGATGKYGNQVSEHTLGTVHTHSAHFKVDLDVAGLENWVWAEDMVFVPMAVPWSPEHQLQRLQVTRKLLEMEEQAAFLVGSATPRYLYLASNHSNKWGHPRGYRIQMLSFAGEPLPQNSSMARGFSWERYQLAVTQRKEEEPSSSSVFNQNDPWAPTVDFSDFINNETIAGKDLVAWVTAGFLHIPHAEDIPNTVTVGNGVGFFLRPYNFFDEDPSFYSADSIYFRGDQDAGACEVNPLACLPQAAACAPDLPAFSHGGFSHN
Assay: Human Semicarbazide-Sensitive Amine Oxidase (SSAO) Assay
Format: biochemical
Conditions: recombinant enzyme, 30 minutes preincubation at 37° C., benzylamine substrate, Amplex Ultra Red/HRP fluorescence
Experimental: Compounds were dissolved in DMSO to provide a Concentration Response Curve (CRC; at 500 times the final concentration) over a range of 6-10 dilutions.
Recombinant Human SSAO/VAP-1/AOC3 (R&D systems; Catalog #3957-AO) was used to screen compound potency in vitro, according to previously described methods (J Pharmacol Exp Ther. 2013 November; 347(2):365-74). SSAO enzyme was suspended in 50 mM HEPES buffer to a working concentration of 2.5 μg/ml and 40 μL of this enzyme mixture was then added to each well of a F16 Black Maxisorp 96 well Plate (Nunc, Catalog #475515). Ten microliters of each test compound (at 5 times the final concentration) were added to each well, resulting in a final well volume of 50 μL of the enzyme and inhibitor mixture. The compounds were preincubated with the enzyme for 30 minutes at 37° C., prior to the addition of a 40 μL volume of Amplex Ultra Red (125 uM AUR; Molecular Probes, Catalog # A36006)/Horseradish peroxidase (2.5 U/ml HRP; Sigma-Aldrich Catalog # P8375) oxidase detection reagent containing cytochrome C ([…]; Sigma-Aldrich Catalog # C7752). Cytochrome C was included in the AUR/HRP detection mixture to reduce the background fluorescence that can occur via the spontaneous redox reaction between AUR and HRP. The SSAO enzyme reaction was then initiated by adding 10 μL of the SSAO substrate, benzylamine (Sigma-Aldrich Catalog # B5136), and SSAO activity was measured in kinetic mode over a 30-120 minute sampling period (excit. 544 nm; emit 590 nm; cut off 570 nm; medium gain) to obtain IC50 values for enzyme activity in each treatment well.

| IC50 [nM] | Structure (SMILES) |
| --- | --- |
| ≤ 10 | CNC(=O)[C@H]1C2CC3CC1C[C@@](c1ccc(OC/C(=C/F)CN)cc1)(C3)C2 (single isomer, unassigned) [Compound 6, anti-5-(4-(((E)-2-(Aminomethyl)-3-fluoroallyl)oxy)phenyl)-N-methyladamantane-2-carboxamide Hydrochloride] |
| ≤ 10 | CNC(=O)[C@H]1C2CC3CC1C[C@](c1ccc(OC/C(=C/F)CN)cc1)(C3)C2 (single isomer, unassigned) [Compound 6.01, syn-5-(4-(((E)-2-(Aminomethyl)-3-fluoroallyl)oxy)phenyl)-N-methyladamantane-2-carboxamide Hydrochloride] |
| ≤ 10 | NC/C(=C\F)COc1ccc([C@]23CC4CC(C2)[C@@H](C(=O)NC2CCOCC2)C(C4)C3)cc1 (single isomer, unassigned) [Compound 6.02, syn-5-(4-(((E)-2-(Aminomethyl)-3-fluoroallyl)oxy)phenyl)-N-(tetrahydro-2H-pyran-4-yl)adamantane-2-carboxamide Hydrochloride] |
| ≤ 10 | NC/C(=C\F)COc1ccc([C@]23CC4CC(C2)[C@H](C(=O)NC2CCOCC2)C(C4)C3)cc1 (single isomer, unassigned) [Compound 6.03, anti-5-(4-(((E)-2-(Aminomethyl)-3-fluoroallyl)oxy)phenyl)-N-(tetrahydro-2H-pyran-4-yl)adamantane-2-carboxamide Hydrochloride] |
| ≤ 10 | NC/C(=C\F)COc1ccc(C23CCC(C(=O)NC4[C@H]5COC[C@H]45)(CC2)CC3)cc1 (stereo in doubt) [Compound 2.66, 4-(4-(((E)-2-(aminomethyl)-3-fluoroallyl)oxy)phenyl)-N-((1R,5S,6s)-3-oxabicyclo[3.1.0]hexan-6-yl)bicyclo[2.2.2]octane-1-carboxamide] |
| ≤ 10 | NC/C(=C\F)COc1ccc(C23CCC(C(=O)NC4[C@H]5COC[C@H]45)(CC2)CC3)cc1 (stereo in doubt) [Compound 2.70, 4-(4-(((E)-2-(aminomethyl)-3-fluoroallyl)oxy)phenyl)-N-((1R,5S,6r)-3-oxabicyclo[3.1.0]hexan-6-yl)bicyclo[2.2.2]octane-1-carboxamide] |
| ≤ 10 | CO[C@@H]1CCCC(NC(=O)C23CCC(c4ccc(OC/C(=C/F)CN)cc4)(CC2)CC3)C1 (stereo in doubt) [Compound 2.115, 4-(4-(((E)-2-(aminomethyl)-3-fluoroallyl)oxy)phenyl)-N-((1S,3R)-3-methoxycyclohexyl)bicyclo [2.2.2]octane-1-carboxamide] |
| ≤ 10 | NC/C(=C\F)COc1ccc(C2(C(N)=O)CCCCC2)cc1 [Compound 1, (E)-1-(4-((2-(Aminomethyl)-3-fluoroallyl)oxy)phenyl)cyclohexanecarboxamide Hydrochloride] |
| 10 to 100 | CNC(=O)C1(c2ccc(OC/C(=C/F)CN)cc2)CCCCC1 [Compound 1.01, (E)-1-(4-((2-(Aminomethyl)-3-fluoroallyl)oxy)phenyl)-N-methylcyclohexanecarboxamide] |
| ≤ 10 | CNC(=O)C12CCC(c3ccc(OC/C(=C/F)CN)c(C)c3)(CC1)CC2 [Compound 2, (E)-4-(4-((2-(aminomethyl)-3-fluoroallyl)oxy)-3-methylphenyl)-N-methylbicyclo[2.2.2]octane-1-carboxamide] |
| ≤ 10 | CNC(=O)C12CCC(c3ccc(OC/C(=C\F)CN)c(C)c3)(CC1)CC2 [Compound 2.01, (Z)-4-(4-((2-(aminomethyl)-3-fluoroallyl)oxy)-3-methylphenyl)-N-methylbicyclo[2.2.2]octane-1-carboxamide] |
| ≤ 10 | Cc1cc(C23CCC(C(N)=O)(CC2)CC3)ccc1OC/C(=C/F)CN [Compound 2.02, (E)-4-(4-((2-(aminomethyl)-3-fluoroallyl)oxy)-3-methylphenyl)bicyclo[2.2.2] octane-1-carboxamide] |
| ≤ 10 | CNC(=O)C12CCC(c3ccc(OC/C(=C/F)CN)cc3)(CC1)CC2 [Compound 2.03, (E)-4-(4-((2-(aminomethyl)-3-fluoroallyl)oxy)phenyl)-N-methylbicyclo[2.2.2]octane-1-carboxamide Hydrochloride] |
| ≤ 10 | COC(=O)C12CCC(c3ccc(OC/C(=C/F)CN)cc3)(CC1)CC2 [Compound 2.04, (E)-methyl 4-(4-((2-(aminomethyl)-3-fluoroallyl)oxy)phenyl)bicyclo [2.2.2]octane-1-carboxylate] |
| 10 to 100 | NC/C(=C\F)COc1ccc(C23CCC(C(=O)O)(CC2)CC3)cc1 [Compound 2.05, (E)-4-(4-((2-(amino-methyl)-3-fluoroallyl)oxy)phenyl) bicyclo[2.2.2]octane-1-carboxylic acid] |
| ≤ 10 | NC/C(=C\F)COc1ccc(C23CCC(C(=O)NC4CCOCC4)(CC2)CC3)cc1 [Compound 2.06, (E)-4-(4-((2-(Aminomethyl)-3-fluoroallyl)oxy)phenyl)-N-(tetrahydro-2H-pyran-4-yl)bicyclo[2.2.2]octane-1-carboxamide Hydrochloride] |
| ≤ 10 | NC/C(=C/F)COc1ccc(C23CCC(C(=O)NC4CCOCC4)(CC2)CC3)cc1 [Compound 2.06b, (Z)-4-(4-((2-(amino-methyl)-3-fluoroally)oxy)phenyl)-N-(tetrahydro-2H-pyran-4-yl)bicyclo[2.2.2]octane-1-carboxamide] |
| ≤ 10 | NC/C(=C\F)COc1ccc(C23CCC(C(=O)N4CCOCC4)(CC2)CC3)cc1 [Compound 2.07] |
| ≤ 10 | NC/C(=C\F)COc1ccc(C23CCC(C(=O)NCCC(=O)O)(CC2)CC3)cc1 [Compound 2.08, (E)-3-(4-(4-((2-(aminomethyl)-3-fluoroallyl)oxy)phenyl)bicyclo[2.2.2]octane-1-carboxamido)propanoic acid] |
| ≤ 10 | NC/C(=C\F)COc1ccc(C23CCC(C(=O)NCc4nnn[nH]4)(CC2)CC3)cc1 [Compound 2.09, (E)-N-((1H-tetrazol-5-yl)methyl)-4-(4-((2-(aminomethyl)-3-fluoroallyl)oxy)phenyl) bicyclo[2.2.2]octane-1-carboxamide] |
| ≤ 10 | NC/C(=C\F)COc1ccc(C23CCC(C(N)=O)(CC2)CC3)cc1 [Compound 2.10, (E)-4-(4-((2-(aminomethyl)-3-fluoroallyl)oxy)phenyl) bicyclo[2.2.2]octane-1-carboxamide] |
| ≤ 10 | NC/C(=C\F)COc1ccc(C23CCC(C(=O)NCCc4nnn[nH]4)(CC2)CC3)cc1 [Compound 2.11, (E)-N-(2-(1H-tetrazol-5-yl)ethyl)-4-(4-((2-(aminomethyl)-3-fluoroallyl)oxy)phenyl) bicyclo[2.2.2]octane-1-carboxamide] |
| ≤ 10 | COC(=O)C1CCN(C(=O)C23CCC(c4ccc(OC/C(=C/F)CN)cc4)(CC2)CC3)CC1 [Compound 2.12, (E)-methyl 1-(4-(4-((2-(aminomethyl)-3-fluoroallyl)oxy)phenyl)bicyclo[2.2.2]octane-1-carbonyl)piperidine-4-carboxylate] |
| ≤ 10 | NC/C(=C\F)COc1ccc(C23CCC(C(=O)N4CC(C(=O)O)C4)(CC2)CC3)cc1 [Compound 2.13, (E)-1-(4-(4-((2-(aminomethyl)-3-fluoroallyl)oxy)phenyl)bicyclo[2.2.2]octane-1-carbonyl)azetidine-3-carboxylic acid] |
| ≤ 10 | NC/C(=C\F)COc1ccc(C23CCC(C(=O)N4CCC(O)CC4)(CC2)CC3)cc1 [Compound 2.14, (E)-(4-(4-((2-(aminomethyl)-3-fluoroallyl)oxy)phenyl)bicyclo[2.2.2]octan-1-yl) (4-hydroxypiperidin-1-yl)methanone] |
| ≤ 10 | COCCNC(=O)C12CCC(c3ccc(OC/C(=C/F)CN)cc3)(CC1)CC2 [Compound 2.15, (E)-4-(4-((2-(aminomethyl)-3-fluoroallyl)oxy)phenyl)-N-(2-methoxyethyl) bicyclo[2.2.2] octane-1-carboxamide] |
